# Test results reported in ChEMBL document CHEMBL5233262, “Anti-inflammatory activity of naturally occuring diarylheptanoids - A review” (Bioorg Med Chem, 2021).
# Columns and labels:
# [1] = system: RAW264.7; assay: Antiinflammatory activity in mouse RAW264.7 cells assessed as inhibition of LPS-induced NO production preincubated for 0.5 hrs followed by LPS stimulation and measured after 24 hrs by Griess reagent based analysis; format: functional, cell-based
# [2] = system: RAW264.7; assay: Antiinflammatory activity in mouse RAW264.7 cells assessed as inhibition of IFN-gamma and LPS-induced NO production incubated for 24 hrs by Griess assay; format: functional, cell-based; conditions: RAW264.7, 24 h
# [3] = system: RAW264.7; assay: Antiinflammatory activity against mouse RAW264.7 cells assessed as inhibition of IFN-gamma and LPS-induced COX2 production preincubated for 2 hrs followed by IFN-gamma and LPS stimulation and measured after 16 hrs by spectrophotometric analysis; format: functional, cell-based
# [4] = system: J774.A1; assay: Antiinflammatory activity in mouse J774.A1 cells assessed as inhibition of LPS-induced TNF-alpha production at 10 microg/ml preincubated for 30 mins followed by LPS stimulation and measured after 2 hrs by Griess reagent based analysis; format: functional; conditions: J774.A1, 2.5 h, time 150 min
# [5] = system: J774.A1; assay: Antiinflammatory activity in mouse J774.A1 cells assessed as inhibition of LPS-induced IL-6 production at 10 microg/ml preincubated for 30 mins followed by LPS stimulation and measured after 2 hrs by Griess reagent based analysis; format: functional; conditions: J774.A1, 2.5 h, time 150 min
# [6] = Antioxidant activity assessed as DPPH radical scavenging activity incubated for 30 mins by spectrophotometric analysis; format: functional
# [7] = system: J774.A1; assay: Antiinflammatory activity in mouse J774.A1 cells assessed as inhibition of LPS-induced NO production incubated for 24 hrs by Griess reagent based analysis; format: functional, cell-based; conditions: J774.A1, 24 h
# [8] = Antioxidant activity assessed as DPPH radical scavenging activity; format: functional
# [9] = Antioxidant activity assessed as hydroxyl radical scavenging activity; format: functional
# [10] = Antioxidant activity assessed as ABTS radical scavenging activity measured after 6 mins; format: functional
# [11] = system: Mus musculus; assay: Antiinflammatory activity in ICR mouse model of TPA-induced ear edema assessed as inhibition of ear inflammation at 20 uM,TOP for 30 mins followed by TPA addition and measured after 5 hrs; format: functional; conditions: 5.5 h, time 330 min
# [12] = target: T1, Polyunsaturated fatty acid 5-lipoxygenase (Homo sapiens, UniProt P09917); assay: Inhibition of 5-LOX in human neutrophils assessed as reduction in 5-HETE formation preincubated for 5 mins followed by arachidonic acid and A23187 addition and measured after 5 mins by RP-HPLC analysis; format: cell-based, Neutrophil
# T1 sequence (P09917 whole entry): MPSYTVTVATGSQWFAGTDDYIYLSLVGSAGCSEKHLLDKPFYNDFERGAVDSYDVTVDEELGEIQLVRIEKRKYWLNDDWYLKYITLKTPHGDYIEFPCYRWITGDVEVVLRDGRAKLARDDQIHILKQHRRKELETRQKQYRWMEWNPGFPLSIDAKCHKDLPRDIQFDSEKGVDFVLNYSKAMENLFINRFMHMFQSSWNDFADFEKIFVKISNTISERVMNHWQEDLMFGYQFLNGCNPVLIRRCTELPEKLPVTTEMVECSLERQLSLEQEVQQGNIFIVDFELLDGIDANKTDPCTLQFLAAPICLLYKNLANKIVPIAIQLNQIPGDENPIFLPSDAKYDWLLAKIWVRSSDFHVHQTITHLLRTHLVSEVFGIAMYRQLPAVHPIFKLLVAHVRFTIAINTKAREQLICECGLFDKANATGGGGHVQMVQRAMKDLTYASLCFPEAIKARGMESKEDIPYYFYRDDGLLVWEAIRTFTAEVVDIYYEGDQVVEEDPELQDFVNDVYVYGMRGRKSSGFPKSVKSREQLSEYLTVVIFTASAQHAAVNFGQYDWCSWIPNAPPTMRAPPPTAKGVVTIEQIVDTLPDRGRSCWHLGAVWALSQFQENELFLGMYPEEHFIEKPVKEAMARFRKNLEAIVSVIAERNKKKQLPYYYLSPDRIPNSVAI
# [13] = Inhibition of COX in bovine seminal vesicle assessed as reduction in PGE2 production using arachidonic acid as substrate; format: tissue-based, Bos taurus
# [14] = system: HUVEC; assay: Antiinflammatory activity in human HUVEC cells assessed as inhibition of TNFalpha-induced VCAM-1 expression at 1 to 50 uM preincubated for 2 hrs followed by TNFalpha stimulation and measured after 8 hrs by ELISA; format: functional; conditions: dose 1-50 µM, time 10 hrs
# [15] = system: HUVEC; assay: Antiinflammatory activity in human HUVEC cells assessed as inhibition of IL-1beta induced VCAM-1 expression at 1 to 50 uM preincubated for 2 hrs followed by IL-1beta stimulation and measured after 8 hrs by ELISA; format: functional; conditions: dose 1-50 µM, time 10 hrs
# [16] = system: HUVEC; assay: Antiinflammatory activity in human HUVEC cells assessed as inhibition of TNFalpha-induced ICAM-1 expression at 1 to 50 uM preincubated for 2 hrs followed by TNFalpha stimulation and measured after 8 hrs by ELISA; format: functional; conditions: dose 1-50 µM, time 10 hrs
# [17] = system: HUVEC; assay: Antiinflammatory activity in human HUVEC cells assessed as inhibition of IL-1beta induced ICAM-1 expression at 1 to 50 uM preincubated for 2 hrs followed by IL-1beta stimulation and measured after 8 hrs by ELISA; format: functional; conditions: dose 1-50 µM, time 10 hrs
# [18] = system: Zingiber officinale; assay: Inhibition of prostaglandin biosynthesis in ginger; format: functional, organism-based
# [19] = Antioxidant activity assessed as nitroblue tetrazolium superoxide radical scavenging activity by spectrophotometric analysis; format: functional
# [20] = Antioxidant activity assessed as nitroblue tetrazolium superoxide radical scavenging activity incubated for 10 mins by spectrophotometric analysis; format: functional
# [21] = system: RAW264.7; assay: Antiinflammatory activity in mouse RAW264.7 cells assessed as inhibition of LPS-induced NO production preincubated for 1 hrs followed by LPS stimulation and measured after 24 hrs by Griess reagent based analysis; format: functional, cell-based
# [22] = system: RAW264.7; assay: Antiinflammatory activity in mouse RAW264.7 cells assessed as inhibition of LPS-induced NO production incubated for 24 hrs by Griess method; format: functional, cell-based; conditions: RAW264.7, 24 h
# [23] = system: RAW264.7; assay: Antiinflammatory activity in mouse RAW264.7 cells assessed as inhibition of LPS-induced NO production incubated for 20 hrs by Griess method; format: functional, cell-based; conditions: RAW264.7, 20 h
# [24] = Cytotoxicity against mouse RAW264.7 cells assessed as reduction in cell viability by MTT assay; format: toxicity, cell-based
# [25] = system: RAW264.7; assay: Antiinflammatory activity in mouse RAW264.7 cells assessed as inhibition of LPS-induced NO production incubated for 24 hrs by Griess reagent based analysis; format: functional, cell-based; conditions: RAW264.7, 24 h
# [26] = system: RAW264.7; assay: Antiinflammatory activity in mouse RAW264.7 cells assessed as inhibition of LPS-induced TNFalpha production preincubated for 1 hr followed by LPS stimulation and measured after 18 hrs by immunoassay; format: functional, cell-based
# [27] = system: RAW264.7; assay: Antiinflammatory activity in mouse RAW264.7 cells assessed as inhibition of LPS-induced NF-kappaB activation incubated for 24 hrs by SEAP microplate reader analysis; format: functional, cell-based; conditions: RAW264.7, 24 h
# [28] = Antiinflammatory activity in human HEK001 cells assessed as inhibition of TNF-alpha induced IL-8 production at […] incubated for 24 hrs by ELISA; format: functional; conditions: dose 7.5 µM
# [29] = Antiinflammatory activity in human HEK001 cells assessed as inhibition of TNF-alpha induced PGE2 production at […] incubated for 24 hrs by ELISA; format: functional; conditions: dose 7.5 µM
# [30] = Antiinflammatory activity in human HEK001 cells assessed as inhibition of TNF-alpha induced CCL7 production at […] incubated for 24 hrs by ELISA; format: functional; conditions: dose 7.5 µM
# [31] = Antiinflammatory activity in human HEK001 cells assessed as inhibition of TNF-alpha induced NO production incubated for 24 hrs at […] by Griess reagent based analysis; format: functional; conditions: dose 7.5 µM
# [32] = Antiinflammatory activity in human HEK001 cells assessed as inhibition of LPS induced IL-1beta production at […] incubated for 24 hrs by ELISA; format: functional; conditions: dose 7.5 µM
# [33] = Antiinflammatory activity in human HEK001 cells assessed as inhibition of LPS induced IL-8 production at […] incubated for 24 hrs by ELISA; format: functional; conditions: dose 7.5 µM
# [34] = Antiinflammatory activity in human HEK001 cells assessed as inhibition of LPS induced CCL17 production at […] incubated for 24 hrs by ELISA; format: functional; conditions: dose 7.5 µM
# [35] = Antiinflammatory activity in human Keratinocytes assessed as inhibition of LPS induced IL-1beta production at […] incubated for 24 hrs by ELISA; format: functional; conditions: Keratinocyte, dose 7.5 µM
# [36] = Antiinflammatory activity in human Keratinocytes assessed as inhibition of LPS induced CCL17 production at […] incubated for 24 hrs by ELISA; format: functional; conditions: Keratinocyte, dose 7.5 µM
# [37] = target: Nuclear factor NF-kappa-B complex (Homo sapiens) (UniProt Q00653+P19838+Q04206); assay: Inhibition of human NF-kappaB p65 binding to DNA in LPS-stimulated human keratinocytes at […] for 30 mins by ELISA; format: cell-based; conditions: Keratinocyte, dose 7.5 µM
# [38] = Antiinflammatory activity in human Keratinocytes assessed as inhibition of LPS induced ERK production at […] incubated for 24 hrs by ELISA; format: functional; conditions: Keratinocyte, dose 7.5 µM
# [39] = system: Mus musculus; assay: Antiinflammatory activity in Dermatophagoides farina induced atopic dermatitis like skin lesions NC/Nga mouse model assessed as inhibition of IL-4 level at 0.1 %,ip twice a week for 4 weeks by ELISA; format: functional
# [40] = system: Mus musculus; assay: Antiinflammatory activity in Dermatophagoides farina induced atopic dermatitis like skin lesions NC/Nga mouse model assessed as inhibition of IL-5 level at 0.1 %,ip twice a week for 4 weeks by ELISA; format: functional
# [41] = system: Mus musculus; assay: Antiinflammatory activity in Dermatophagoides farina induced atopic dermatitis like skin lesions NC/Nga mouse model assessed as inhibition of IL-4 level at 1 %,ip twice a week for 4 weeks by ELISA; format: functional
# [42] = system: Mus musculus; assay: Antiinflammatory activity in Dermatophagoides farina induced atopic dermatitis like skin lesions NC/Nga mouse model assessed as inhibition of IL-5 level at 1 %,ip twice a week for 4 weeks by ELISA; format: functional
# [43] = system: Mus musculus; assay: Antiinflammatory activity in Dermatophagoides farina induced atopic dermatitis like skin lesions NC/Nga mouse model assessed as inhibition of COX-2 expression level at 0.1 %,ip twice a week for 4 weeks by RT-PCR analysis; format: functional
# [44] = system: Mus musculus; assay: Antiinflammatory activity in Dermatophagoides farina induced atopic dermatitis like skin lesions NC/Nga mouse model assessed as inhibition of iNOS expression level at 0.1 %,ip twice a week for 4 weeks by RT-PCR analysis; format: functional
# [45] = system: Mus musculus; assay: Antiinflammatory activity in Dermatophagoides farina induced atopic dermatitis like skin lesions NC/Nga mouse model assessed as inhibition of COX-2 expression level at 1 %,ip twice a week for 4 weeks by RT-PCR analysis; format: functional
# [46] = system: Mus musculus; assay: Antiinflammatory activity in Dermatophagoides farina induced atopic dermatitis like skin lesions NC/Nga mouse model assessed as inhibition of iNOS expression level at 1 %,ip twice a week for 4 weeks by RT-PCR analysis; format: functional
# [47] = Antiinflammatory activity in mouse BMDM cells assessed as inhibition of LPS induced IL-1beta secretion at 5 uM; format: functional
# Chain of Nuclear factor NF-kappa-B complex (Homo sapiens) (P19838 whole entry, looked up): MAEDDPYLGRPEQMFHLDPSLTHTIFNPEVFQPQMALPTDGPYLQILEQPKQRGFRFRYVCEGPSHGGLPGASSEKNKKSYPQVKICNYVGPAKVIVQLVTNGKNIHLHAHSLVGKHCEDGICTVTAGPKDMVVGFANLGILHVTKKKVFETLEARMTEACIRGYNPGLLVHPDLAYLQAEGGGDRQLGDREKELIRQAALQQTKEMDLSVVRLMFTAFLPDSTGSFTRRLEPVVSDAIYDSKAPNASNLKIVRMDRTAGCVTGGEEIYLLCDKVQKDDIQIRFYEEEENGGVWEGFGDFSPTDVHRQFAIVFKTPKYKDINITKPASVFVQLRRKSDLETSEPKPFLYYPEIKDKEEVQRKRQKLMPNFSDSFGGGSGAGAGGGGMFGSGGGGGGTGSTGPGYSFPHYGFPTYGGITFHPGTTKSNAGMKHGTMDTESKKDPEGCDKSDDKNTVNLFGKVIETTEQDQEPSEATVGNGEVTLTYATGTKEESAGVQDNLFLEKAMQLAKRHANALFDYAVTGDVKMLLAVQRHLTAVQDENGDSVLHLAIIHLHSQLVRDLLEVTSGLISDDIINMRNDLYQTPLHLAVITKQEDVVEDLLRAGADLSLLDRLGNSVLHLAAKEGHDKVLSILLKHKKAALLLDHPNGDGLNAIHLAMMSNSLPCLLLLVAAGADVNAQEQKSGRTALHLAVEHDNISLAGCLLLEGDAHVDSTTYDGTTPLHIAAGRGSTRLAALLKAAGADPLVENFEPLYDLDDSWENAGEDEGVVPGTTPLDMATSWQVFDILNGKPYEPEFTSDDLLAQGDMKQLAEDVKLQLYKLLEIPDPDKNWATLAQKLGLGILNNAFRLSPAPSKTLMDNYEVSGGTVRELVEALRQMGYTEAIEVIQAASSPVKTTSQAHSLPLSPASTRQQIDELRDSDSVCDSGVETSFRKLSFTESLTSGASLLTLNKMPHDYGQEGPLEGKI
# Chain of Nuclear factor NF-kappa-B complex (Homo sapiens) (Q00653 whole entry, looked up): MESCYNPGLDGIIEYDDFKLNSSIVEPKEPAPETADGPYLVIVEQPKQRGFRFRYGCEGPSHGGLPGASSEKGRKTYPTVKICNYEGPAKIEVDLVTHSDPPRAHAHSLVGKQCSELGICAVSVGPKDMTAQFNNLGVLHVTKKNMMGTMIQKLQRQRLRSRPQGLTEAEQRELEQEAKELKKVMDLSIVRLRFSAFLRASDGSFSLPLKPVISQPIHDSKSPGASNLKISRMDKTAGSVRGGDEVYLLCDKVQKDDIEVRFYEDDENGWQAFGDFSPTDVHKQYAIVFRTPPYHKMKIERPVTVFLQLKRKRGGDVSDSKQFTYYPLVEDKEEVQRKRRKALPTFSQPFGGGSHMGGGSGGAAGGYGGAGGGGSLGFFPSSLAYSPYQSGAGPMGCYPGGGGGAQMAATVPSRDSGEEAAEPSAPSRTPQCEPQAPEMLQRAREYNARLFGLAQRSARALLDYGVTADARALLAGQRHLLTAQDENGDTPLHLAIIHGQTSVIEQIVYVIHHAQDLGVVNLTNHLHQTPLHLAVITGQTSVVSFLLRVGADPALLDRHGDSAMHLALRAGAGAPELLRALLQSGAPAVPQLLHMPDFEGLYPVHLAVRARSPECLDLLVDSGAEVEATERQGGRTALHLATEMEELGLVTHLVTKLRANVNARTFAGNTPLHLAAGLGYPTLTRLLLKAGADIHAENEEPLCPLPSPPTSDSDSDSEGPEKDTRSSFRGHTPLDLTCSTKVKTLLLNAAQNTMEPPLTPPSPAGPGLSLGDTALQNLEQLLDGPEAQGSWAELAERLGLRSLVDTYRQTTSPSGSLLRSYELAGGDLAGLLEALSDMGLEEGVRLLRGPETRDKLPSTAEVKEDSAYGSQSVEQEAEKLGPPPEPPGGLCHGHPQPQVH
# Chain of Nuclear factor NF-kappa-B complex (Homo sapiens) (Q04206 whole entry, looked up): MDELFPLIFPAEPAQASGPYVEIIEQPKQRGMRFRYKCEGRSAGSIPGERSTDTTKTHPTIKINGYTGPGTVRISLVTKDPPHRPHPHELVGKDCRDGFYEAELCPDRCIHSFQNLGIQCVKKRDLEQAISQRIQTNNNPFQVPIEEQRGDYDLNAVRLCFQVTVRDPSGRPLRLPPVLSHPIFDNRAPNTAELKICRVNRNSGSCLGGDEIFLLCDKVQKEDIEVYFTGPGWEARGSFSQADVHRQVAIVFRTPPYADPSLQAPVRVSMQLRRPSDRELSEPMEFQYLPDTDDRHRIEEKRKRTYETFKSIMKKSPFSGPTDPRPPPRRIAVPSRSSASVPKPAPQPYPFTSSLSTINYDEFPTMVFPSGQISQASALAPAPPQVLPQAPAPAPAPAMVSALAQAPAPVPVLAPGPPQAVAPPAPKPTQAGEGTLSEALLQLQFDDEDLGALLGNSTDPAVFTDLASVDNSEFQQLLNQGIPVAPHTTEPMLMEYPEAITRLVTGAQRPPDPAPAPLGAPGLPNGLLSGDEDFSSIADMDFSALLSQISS
compound,measurement,setting,value
O=C(CCc1ccc(O)c(O)c1)C[C@H](CCc1ccc(O)c(O)c1)O[C@@H]1O[C@H](CO)[C@@H](O)[C@H](O)[C@H]1O,IC50,[1],10 µM
same,IC50,[2],29.4 µg/mL
same,IC50,[3],33.7 µg/mL
same,inhibition at 10 µg/mL,[4],51%
same,inhibition at 10 µg/mL,[5],75%
O=C1O[C@H]([C@@H](O)CO)C(O)=C1O [ASCORBIC ACID],IC50,[6],24.8 µM
same,IC50,[7],> 100 µM
same,IC50,[8],58 µg/mL
same,IC50,[9],47 µg/mL
same,IC50,[10],23.3 µM
COc1cc(/C=C/C(=O)CCCCc2ccccc2)ccc1O,inhibition in vivo at 20 µM,[11],52%
same,IC50,[12],4 µM
same,IC50,[13],23 µM
same,inhibition (INH),[14],0%
same,inhibition (INH),[15],0%
same,inhibition (INH),[16],0%
same,inhibition (INH),[17],0%
same,IC50,[18],2.3 µM
O=C(/C=C/CCc1ccc(O)c(O)c1)CCc1ccc(O)c(O)c1 [DEHYDROHIRSUTANONOL],IC50,[6],13.4 µM
same,IC50,[19],17.6 µM
same,IC50,[20],16.8 µM
same,IC50,[21],5.8 µM
same,IC50,[22],14.1 µM
same,IC50,[23],0.8 µM
same,IC50,[1],5 µM
same,IC50,[24],39 µM
same,IC50,[2],27.2 µg/mL
same,IC50,[3],25 µg/mL
same,IC50,[25],> 100 µM
same,IC50,[26],> 100 µM
same,IC50,[27],> 100 µM
same,inhibition at […],[28],33%
same,inhibition at […],[29],46%
same,inhibition at […],[30],43%
same,inhibition at […],[31],37%
same,inhibition at […],[32],39%
same,inhibition at […],[33],40%
same,inhibition at […],[34],51%
same,inhibition at […],[35],39%
same,inhibition at […],[36],49%
same,inhibition,[37],29.5%
same,inhibition at […],[38],37%
same,inhibition (INH),[39],51%
same,inhibition (INH),[40],37%
same,inhibition (INH),[41],60%
same,inhibition (INH),[42],74%
same,inhibition (INH),[43],57%
same,inhibition (INH),[44],61%
same,inhibition (INH),[45],62%
same,inhibition (INH),[46],73%
same,inhibition at 5 µM,[47],73.4%
